Tested on: yeast cells of the strain RPY10
Assay: Transformation rate of yeast cells incubated with plasmid YEP24, with and without auxiliary agent
Type: cell-based, Saccharomyces cerevisiae
Conditions: 5 μl chloroquine (100 mM solution) in 1 ml 1M saccharose pH 3.3, 10 μg YEP24, 24 h at 24° C., without chloroquine 0.8
Method: A test method for the quantification of the uptake and the endocytosis transfer was made as follows. […] cells from the logarithmic growth phase of the strain RPY10 (Matα, leu2-3, ura3, his4 ade6 (4×10^7−7×10^7 cells per ml) (Piper, R. C., Whitters, E. A., Stevens, T. H. (1994) Yeast VpsS4p is a Sec 1p-like protein required for the consumption of vacuolar targeted, post-Golgi vesicles. Eur. J. Cell Biol. 65:305-318) were incubated for 24 h with 10 μg of the purified plasmid YEP24 (see: D. Bothstein et al., 1979, Gene 8:17-24), with and without auxiliary agent. The structure of the plasmid is shown in FIG. 1.
Prior to the incubation, the cells were washed with the plasmid with at least twice the same volume of H2O and taken up in 1 ml 1M saccharose (pH 3.3, high concentrations of fermentable sugar), re-suspended with the pipette tip and brought in one 10 ml each falcon tube. […] Both were incubated for 5 min at room temperature.
Then 10 μg DNA from the same DNA preparation were pipetted thereto (in 3-100 μl). The falcon tubes were firmly closed and agitated for 24 hours in a water bath or breeding room at 24° C. (the optimum transformation rate is at 24° C.-28° C). […]
After the incubation, 200-500 cells per plate on YE plates (full medium) were plated out, and the colony-forming units (CFU) were determined. […] After 5 days at 24° C., the CFU were counted and tested by means of PCR. […]

With CCN(CC)CCCC(C)Nc1ccnc2cc(Cl)ccc12 (stereo not shown) [chloroquine] the transformation rate was 10.2 10^−8 transformants/CFU.

Source: patent publication US20040132027A1, “Screening method for discovering auxiliary agents promoting endocytosis” (priority 2000, published 2004)
